According to ChEMBL document CHEMBL1154198, “Chemical genetics of Plasmodium falciparum” (Nature, 2010):

What was measured:
Plasmodium falciparum [1] = experiment: ST_JUDE: Plasmodium falciparum K1 EC50 (uM) as measured by SYBR green dye; type: functional, organism-based
Plasmodium falciparum [2] = experiment: ST_JUDE: Plasmodium falciparum 3D7 EC50 (uM) as measured by SYBR green dye; type: functional, organism-based

Row | EC50 (Plasmodium falciparum [1]) [µM] | EC50 (Plasmodium falciparum [2]) [µM] | SMILES
1 | 7.65 | 8.15 | O=C(N1CCCC1)C12CC3CC(CC(C3)C1)C2
2 | 5.89 | > 15 | CC(=O)NC(c1cccs1)c1cc(Cl)c2cccnc2c1O (stereo unspecified)
3 | 6.76 | 1.34 | CC(C)=CCN1CCC(C(=O)Nc2ccc(-c3nc4ccccc4[nH]3)cc2)CC1
4 | > 15 | > 15 | CCOc1ccc(C2N(C)c3ccccc3N2C)cc1
5 | 1.69 | 1.47 | Nc1ccc(-c2nc3cc(Oc4ccc5[nH]c(-c6ccc(N)cc6)nc5c4)ccc3[nH]2)cc1
6 | 1.29 | 0.575 | CCOC(=O)c1cnc2ccc(OC)cc2c1Nc1ccc(N2CCN(C)CC2)cc1
7 | 0.106 | 0.265 | CCN1C=CC(=Cc2ccc3cc(C)ccc3[n+]2C)C=C1
8 | > 15 | > 15 | O=C(CN1CCN(C2CCCC2)CC1)Nc1ccc([N+](=O)[O-])cc1C(=O)Nc1ccccc1F
9 | 0.514 | > 15 | CCc1c(C)c2cc3c(c(C)c2oc1=O)OCN(CCc1ccc(OC)cc1)C3
10 | 0.274 | 0.612 | Cc1ccc(C)c(Oc2c(C(F)(F)F)oc3c(CN4CCN(Cc5ccccc5)CC4)c(O)ccc3c2=O)c1
11 | 7.84 | > 15 | CCCOc1cccc(C2c3c(-c4ccccc4O)n[nH]c3C(=O)N2CCCOCC)c1 (stereo unspecified)
12 | 3.74 | 3.99 | CCCOc1ccc(C(NC(=O)CCl)NC(=O)CCl)cc1OC
13 | > 15 | > 15 | Cc1ccc(C(=O)N2CCc3ccccc32)cc1Br
14 | 2.39 | 3.47 | C[n+]1ccc(/C=C/c2ccc3c(c2)OCO3)cc1
15 | 0.153 | 0.052 | COc1cccc(NC2=C(N3CCCCC3)C(=O)c3ccccc3C2=O)c1
16 | > 15 | > 15 | CCN(CC)S(=O)(=O)c1ccc(C(=O)Nc2nc(-c3ccccc3OC)cs2)cc1
17 | 4.16 | 3.71 | Oc1c(C(Nc2ccccn2)c2cccc(OC3CCCC3)c2)ccc2cccnc12 (stereo unspecified)
18 | 1.5 | 1.86 | Cc1ccnc(NC(c2ccccc2F)c2ccc3cccnc3c2O)c1 (stereo unspecified)
19 | > 15 | > 15 | CCCCN(C)S(=O)(=O)c1ccc(C(=O)N(Cc2ccccn2)c2nc3ccccc3s2)cc1
20 | 4.22 | 7.28 | COc1cccc(OC)c1CN1CCC(C(Cc2ccccc2F)N(C)C(=O)c2cccs2)CC1 (stereo unspecified)
21 | 1.57 | 3.59 | COc1ccc(Nc2cc(C)nc(N3CCN(C(=O)c4ccccc4C(F)(F)F)CC3)n2)cc1

Row | EC50 (Plasmodium falciparum [1]) [µM] | EC50 (Plasmodium falciparum [2]) [µM] | SMILES
22 | 6.3 | > 15 | CCOC(=O)C1=C(CN(C)c2ccc(F)cc2)NC(=O)NC1c1ccc(Cl)cc1 (stereo unspecified)
23 | 0.602 | 1.41 | Cc1ccc2c(c1)c(-c1ccccc1)c(-c1ccccc1)n2CC(O)CNCCc1ccccc1 (stereo unspecified)
24 | 0.801 | > 15 | O=C(Nc1ccc(N2CCCCC2)c(Cl)c1)c1ccc(F)cc1
25 | > 15 | > 15 | Cc1ccc(C)c(NC(=O)CSc2ccc(Cl)cc2)c1
26 | > 15 | > 15 | CC1(C)Cc2ccccc2C(NCC(=O)O)=N1
27 | 5.6 | 2.83 | CCOc1ccc(CCNC(=O)Nc2cc(C(F)(F)F)cc(C(F)(F)F)c2)cc1OC
28 | > 15 | > 15 | CCN(C(=O)Nc1ccccc1OC)c1nc(-c2ccccc2)cs1
29 | 4.46 | 4.03 | CC(=O)Oc1ccc2ccccc2c1C(NC(=O)C(C)C)c1ccc(Cl)cc1 (stereo unspecified)
30 | 1.43 | 1.58 | Cc1ccc(Nc2nc(N/N=C/c3ccc(/C=N/Nc4nc(Nc5ccc(C)cc5)nc(N5CCOCC5)n4)cc3)nc(N3CCOCC3)n2)cc1
31 | 5.79 | 2.39 | Cn1c2c(c(=N)c3c1CCC3)CCCC2
32 | 0.49 | 1.5 | COc1ccccc1CCN1COc2c(cc3c(C)c(C)c(=O)oc3c2C)C1
33 | 2.7 | > 15 | O=C1c2ccc3c4c(ccc(c24)C(=O)N1CCO)C(=O)N(CCO)C3=O
34 | 1.29 | 0.857 | COc1ccc(Cl)cc1NC(=S)N1CCN(c2ccc(C#N)cc2)CC1
35 | 2.25 | 1.82 | COCc1cc(CN2CCN(c3cccc(C(F)(F)F)c3)CC2)c(O)c2ncccc12
36 | 1.87 | 1.83 | CCc1ccc(NC(=O)C2c3ccccc3C(=O)N(C3CCCC3)C2c2cccs2)cc1 (stereo unspecified)
37 | 3.28 | 3.18 | C[n+]1ccccc1/C=C/c1ccc(O)cc1
38 | 5.92 | 7.66 | CC[n+]1cccc(-c2nc3ccccc3s2)c1
39 | > 15 | 0.432 | Cc1ccc(Nc2cc(C)nc(Nc3ccc(NS(=O)(=O)c4ccc(Cl)cc4)cc3)n2)cc1
40 | 0.284 | 1.49 | CCOc1ccc2c(c1)CN(Cc1ccc(Cl)cc1)CO2
41 | 1 | 1.58 | CC(C)c1ccccc1Oc1c(C(F)(F)F)oc2c(CN3CCCC3)c(O)ccc2c1=O
42 | > 15 | 4.48 | CCOc1ccc(CCNC(=O)Nc2ccc(F)cc2)cc1OCC

Row | EC50 (Plasmodium falciparum [1]) [µM] | EC50 (Plasmodium falciparum [2]) [µM] | SMILES
43 | 4.99 | 5.02 | CCOc1ccc(Nc2cc(C)nc(-n3nc(C)cc3C)n2)cc1
44 | > 15 | > 15 | CCc1c(C)nc(-n2nc(C)cc2NC(=O)c2ccccc2F)nc1O
45 | 4.42 | 3.84 | O=C(Nc1cc(OCC(F)(F)F)cc(OCC(F)(F)C(F)F)c1)c1cccnc1
46 | > 15 | > 15 | CSc1cccc(NC(=O)N2CCC(CO)(Cc3ccccc3Cl)CC2)c1
47 | 3.85 | > 15 | Oc1ccc(Cl)cc1Nc1ncnc2ccc(Br)cc12
48 | 2.95 | 3.79 | FC(F)(F)c1cccc(NC(=S)Nc2cccc(Cl)c2)c1
49 | 3.91 | 2.94 | Cc1ccc(C2Nn3c(nnc3-c3ccccc3)SC2C(=O)N2CCCCCC2)cc1 (stereo unspecified)
50 | 7 | 6.99 | CCOc1ccc2nc(N(Cc3cccnc3)C(=O)c3cccs3)sc2c1
51 | 0.465 | 0.835 | CCCCCCCCCn1ccc(=N)cc1
52 | 1.91 | > 15 | Cc1ccc(NC(=O)CSc2nc3c(cnn3CCO)c(=O)[nH]2)cc1
53 | 2.55 | 1.77 | O=C(Nc1ccccc1F)C1c2ccccc2C(=O)N(C2CCCC2)C1c1cccs1 (stereo unspecified)
54 | > 15 | 4.96 | CCS(=O)(=O)c1ccc(OC)c(/N=N/c2ccc(O)c3ncccc23)c1
55 | 4.64 | > 15 | CCCCc1ccc(Nc2cc(C)nc(-n3nc(C)cc3C)n2)cc1
56 | 1.05 | 0.995 | CCN(CC)CCN1C(=O)c2oc3ccccc3c(=O)c2C1c1cccc(OC)c1 (stereo unspecified)
57 | 7.71 | > 15 | COc1ccccc1[N+]1=C2CCCCN2C(O)(c2ccc(Cl)cc2)C1 (stereo unspecified)
58 | 0.419 | 0.726 | CC(C)(C)C1CCc2onc(C(=O)Nc3cc(Br)ccc3O)c2C1 (stereo unspecified)
59 | 3.82 | > 15 | Cc1ccc(NC(=O)C2(c3ccc([N+](=O)[O-])cc3)CCCC2)cc1
60 | > 15 | > 15 | COc1cccc(-c2nn(C)c3sc(C(=O)NCCN4CCN(Cc5ccccc5)CC4)cc23)c1
61 | 0.846 | 1.63 | COc1ccc(/C=C2\Oc3c(ccc(O)c3CN3CCCCC3)C2=O)cc1
62 | > 15 | > 15 | COc1ccc(N2CCN(CC(O)COc3ccc(C)cc3C(C)(C)C)CC2)cc1 (stereo unspecified)
63 | 4.59 | 5.43 | COc1ccc(NC(=O)CSc2nc(-c3ccccc3Cl)ns2)c(OC)c1
